These results are taken from PubChem BioAssay AID248 (DTP/NCI, 2004).

In the assay the test system is L1210 leukemia ip in BDF1 mice, survival T/C. Put plainly: NCI In Vivo Anticancer Drug Screen. Data for tumor model L1210 Leukemia (intraperitoneal) in B6D2F1 (BDF1) mice. To be noted: endpoint: mean survival time, higher = longer survival. The procedure, abridged: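 Each compound was tested against a transplantable tumor grown in mice. The endpoint was survival, with treated animals benchmarked against vehicle controls as a simple ratio.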

Setting [1] is: dose: 100.0 mg/kg/injection, schedule: Q01DX009 (ip), vehicle: Klucel (hydroxypropylcellulose) (HPC).
Setting [2] is: dose: 100.0 mg/kg/injection, schedule: Q04DX003 (ip), vehicle: Klucel (hydroxypropylcellulose) (HPC).
The mark [3] stands for this setting: dose: 200.0 mg/kg/injection, schedule: Q01DX009 (ip), vehicle: Klucel (hydroxypropylcellulose) (HPC).
Where [4] appears, read: dose: 400.0 mg/kg/injection, schedule: Q01DX009 (ip), vehicle: Klucel (hydroxypropylcellulose) (HPC).
The mark [5] stands for this setting: dose: 100.0 mg/kg/injection, schedule: Q04DX002 (ip), vehicle: Klucel (hydroxypropylcellulose) (HPC).
[6] abbreviates: dose: 200.0 mg/kg/injection, schedule: Q04DX002 (ip), vehicle: Klucel (hydroxypropylcellulose) (HPC).
[7] abbreviates: dose: 100.0 mg/kg/injection, schedule: Q04DX003 (ip), vehicle: saline.
The mark [8] stands for this setting: dose: 200.0 mg/kg/injection, schedule: Q04DX003 (ip), vehicle: saline.
Where [9] appears, read: dose: 400.0 mg/kg/injection, schedule: Q04DX003 (ip), vehicle: saline.
[10] abbreviates: dose: 100.0 mg/kg/injection, schedule: Q04DX003 (ip), vehicle: saline with Tween-80.
The mark [11] stands for this setting: dose: 200.0 mg/kg/injection, schedule: Q04DX003 (ip), vehicle: saline with Tween-80.
[12] abbreviates: dose: 400.0 mg/kg/injection, schedule: Q04DX003 (ip), vehicle: saline with Tween-80.

Where “and” joins values, the source holds several entries; their conditions need not be identical. Equal values may be shown once. Toxic doses and inconclusive results are not listed.

Turning to `CCCCCCCCCCCCCCCC`, the T/C (dose: 25.0 mg/kg/injection, schedule: Q04DX003 (ip), vehicle: Klucel (hydroxypropylcellulose) (HPC)) was 96 % of control; the T/C (dose: 50.0 mg/kg/injection, schedule: Q04DX003 (ip), vehicle: Klucel (hydroxypropylcellulose) (HPC)) is 94 % of control; the T/C under setting [1] was 109 % of control; the T/C under setting [2] is 100 % of control and 104 % of control; the T/C under setting [3] is 96 % of control; the T/C (dose: 200.0 mg/kg/injection, schedule: Q04DX003 (ip), vehicle: Klucel (hydroxypropylcellulose) (HPC)) was 102 % of control. Further, the T/C under setting [4] was 89 % of control and the T/C (dose: 400.0 mg/kg/injection, schedule: Q04DX003 (ip), vehicle: Klucel (hydroxypropylcellulose) (HPC)) was 97 % of control.
Consider `Cc1cccc(NCC(=O)NN)c1`, for which the T/C is, setting by setting: under setting [5], 100 % of control; under setting [6], 115 % of control.
`CCN(CC)CCCC(C)NC(=O)c1cccc2c(N)cccc12` (stereo unspecified): the T/C was 110 % of control (dose: 25.0 mg/kg/injection, schedule: Q01DX009 (ip), vehicle: water); 103 % of control (dose: 50.0 mg/kg/injection, schedule: Q01DX009 (ip), vehicle: water); 101 % of control (dose: 100.0 mg/kg/injection, schedule: Q01DX009 (ip), vehicle: water); 95 % of control (dose: 200.0 mg/kg/injection, schedule: Q01DX009 (ip), vehicle: water); 103 % of control (dose: 400.0 mg/kg/injection, schedule: Q01DX009 (ip), vehicle: water).
With `CCOC(CN)OCC`, the T/C is, setting by setting: (dose: 100.0 mg/kg/injection, schedule: Q01DX009 (ip), vehicle: saline) 114 % of control; under setting [7], 112 % of control; (dose: 200.0 mg/kg/injection, schedule: Q01DX009 (ip), vehicle: saline) 107 % of control; under setting [8], 102 % of control; (dose: 400.0 mg/kg/injection, schedule: Q01DX009 (ip), vehicle: saline) 106 % of control; under setting [9], 97 % of control.
For the compound `CC(C)=CCCC(C)C/C=N\N=C(N)N` (stereo unspecified), the T/C by setting is: (dose: 15.0 mg/kg/injection, schedule: Q01DX Z (ip), vehicle: carboxymethylcellulose (CMC)) 95 % of control; (dose: 30.0 mg/kg/injection, schedule: Q01DX Z (ip), vehicle: carboxymethylcellulose (CMC)) 98 % of control; (dose: 30.0 mg/kg/injection, schedule: Q01DX Z (oral), vehicle: carboxymethylcellulose (CMC)) 118 % of control; (dose: 60.0 mg/kg/injection, schedule: Q01DX Z (ip), vehicle: carboxymethylcellulose (CMC)) 97 % of control; (dose: 60.0 mg/kg/injection, schedule: Q01DX Z (oral), vehicle: carboxymethylcellulose (CMC)) 101 % of control; (dose: 120.0 mg/kg/injection, schedule: Q01DX Z (oral), vehicle: carboxymethylcellulose (CMC)) 97 % of control. The T/C (dose: 240.0 mg/kg/injection, schedule: Q01DX Z (oral), vehicle: carboxymethylcellulose (CMC)) is 101 % of control.
On to `CCCCN(CCCC)P(=S)(OCC)OCC`, for which the T/C was 100 % of control under setting [10], 102 % of control under setting [11] and 104 % of control under setting [12].
As for `N#Cc1ccc(NC(=O)N(CCCl)N=O)cc1`, the T/C is 150 % of control (dose: 1.0 mg/kg/injection, schedule: Q01DX009 (ip), vehicle: saline); 161 % of control (dose: 1.56 mg/kg/injection, schedule: Q01DX009 (ip), vehicle: saline); 160 % of control (dose: 6.25 mg/kg/injection, schedule: Q01DX Z (ip), vehicle: carboxymethylcellulose (CMC)); 118 % of control (dose: 12.5 mg/kg/injection, schedule: Q01DX Z (ip), vehicle: carboxymethylcellulose (CMC)); 104 % of control (dose: 25.0 mg/kg/injection, schedule: Q01DX Z (ip), vehicle: carboxymethylcellulose (CMC)); 152 % of control (dose: 37.5 mg/kg/injection, schedule: Q01DX001 (ip), vehicle: carboxymethylcellulose (CMC)). Further, the T/C is 153 % of control (dose: 75.0 mg/kg/injection, schedule: Q01DX001 (ip), vehicle: carboxymethylcellulose (CMC)) and 177 % of control (dose: 150.0 mg/kg/injection, schedule: Q01DX001 (ip), vehicle: carboxymethylcellulose (CMC)).
In the case of `O=C(NNC(=O)c1ccc(Cl)cc1)Nc1ccc(F)c(Cl)c1`, the T/C by setting is: under setting [1], 97 % of control; under setting [3], 104 % of control; under setting [4], 100 % of control.
Regarding `COC1(OC)C2CCC1C(OS(=O)(=O)c1ccc(C)cc1)C2` (stereo unspecified), the T/C runs as follows: under setting [5], 103 % of control; under setting [6], 106 % of control; (dose: 400.0 mg/kg/injection, schedule: Q04DX002 (ip), vehicle: Klucel (hydroxypropylcellulose) (HPC)) 100 % of control.
For `CN1C(=O)N(C)P1(Cl)(Cl)Cl`, the T/C by setting is: (dose: 100.0 mg/kg/injection, schedule: Q04DX002 (ip), vehicle: saline with Tween-80) 103 % of control; (dose: 200.0 mg/kg/injection, schedule: Q04DX002 (ip), vehicle: saline with Tween-80) 95 % of control; (dose: 400.0 mg/kg/injection, schedule: Q04DX002 (ip), vehicle: saline with Tween-80) 92 % of control.
On to `CCOC(c1ccccc1)(c1ccccc1)c1ccccc1`, for which the T/C by setting is: under setting [10], 101 % of control; under setting [11], 90 % of control; under setting [12], 91 % of control.
In the case of `O=[N+]([O-])c1cc([N+](=O)[O-])c2ccc(S(=O)(=O)O)cc2c1O`, the T/C was 97 % of control (dose: 20.0 mg/kg/injection, schedule: Q01DX009 (ip), vehicle: Klucel (hydroxypropylcellulose) (HPC)); 110 % of control (dose: 20.0 mg/kg/injection, schedule: Q04DX003 (ip), vehicle: Klucel (hydroxypropylcellulose) (HPC)); 100 % of control (dose: 40.0 mg/kg/injection, schedule: Q01DX009 (ip), vehicle: Klucel (hydroxypropylcellulose) (HPC)); 109 % of control (dose: 40.0 mg/kg/injection, schedule: Q04DX003 (ip), vehicle: Klucel (hydroxypropylcellulose) (HPC)); 103 % of control (dose: 80.0 mg/kg/injection, schedule: Q01DX009 (ip), vehicle: Klucel (hydroxypropylcellulose) (HPC)); 105 % of control (dose: 80.0 mg/kg/injection, schedule: Q04DX003 (ip), vehicle: Klucel (hydroxypropylcellulose) (HPC)). Moreover, the T/C under setting [2] was 106 % of control.
As for `CC12CC3CC(Br)(C1)CC(C#N)(C3)C2` (stereo unspecified), the T/C runs as follows: (dose: 6.0 mg/kg/injection, schedule: Q04DX002 (ip), vehicle: Klucel (hydroxypropylcellulose) (HPC)) 109 % of control; (dose: 12.0 mg/kg/injection, schedule: Q04DX002 (ip), vehicle: Klucel (hydroxypropylcellulose) (HPC)) 98 % of control; (dose: 25.0 mg/kg/injection, schedule: Q04DX002 (ip), vehicle: Klucel (hydroxypropylcellulose) (HPC)) 94 % of control.
Consider `NS(=O)(=O)c1ccc(S(=O)(=O)NC2CCCCC2)cc1`, for which the T/C under setting [1] is 101 % of control and the T/C under setting [3] is 101 % of control.
As for `CCC(=O)N1CCOCC1`, the T/C is 102 % of control under setting [7], 105 % of control under setting [8] and 98 % of control under setting [9].
With `CCCCCCCCCCCCCCCCCC(=O)NCCCNC(=O)CCCCCCCCCCCCCCCCC`, the T/C is 98 % of control (dose: 75.0 mg/kg/injection, schedule: Q01DX001 (ip), vehicle: saline); 95 % of control (dose: 150.0 mg/kg/injection, schedule: Q01DX001 (ip), vehicle: saline); 106 % of control (dose: 300.0 mg/kg/injection, schedule: Q01DX001 (ip), vehicle: saline).
On to `OC(COc1cccc2ccccc12)CN1CC=C(c2ccccc2)CC1` (stereo unspecified), for which the T/C is, setting by setting: (dose: 12.5 mg/kg/injection, schedule: Q01DX009 (ip), vehicle: Klucel (hydroxypropylcellulose) (HPC)) 103 % of control; (dose: 25.0 mg/kg/injection, schedule: Q01DX009 (ip), vehicle: Klucel (hydroxypropylcellulose) (HPC)) 100 % of control; (dose: 50.0 mg/kg/injection, schedule: Q01DX009 (ip), vehicle: Klucel (hydroxypropylcellulose) (HPC)) 101 % of control; under setting [1], 100 % of control.
Take `C(Cc1ccccc1)=C(CCc1ccccc1)CCc1ccccc1`: the T/C was 104 % of control (dose: 100.0 mg/kg/injection, schedule: Q01DX001 (ip), vehicle: saline with Tween-80); 93 % of control (dose: 200.0 mg/kg/injection, schedule: Q01DX001 (ip), vehicle: saline with Tween-80); 93 % of control (dose: 400.0 mg/kg/injection, schedule: Q01DX001 (ip), vehicle: saline with Tween-80).
